Results from ChEMBL document CHEMBL3244029, “Synthesis and stereospecific antipsychotic activity of (-)-1-cyclopropylmethyl-4-(3-trifluoromethylthio-5H-dibenzo[a,d]cyclohepten-5-ylidene)piperidine” (J Med Chem, 1977).
Active and inactive are the calls of the source. No cut-off for these calls is given here.

Legend:
Saimiri [1] = assay: Antipsychotic activity in squirrel monkey assessed as inhibition of conditioned avoidance response at 9 mg/kg, po; format: functional, organism-based; set-up: dose 9 mg/kg
Saimiri [2] = assay: Antipsychotic activity in squirrel monkey assessed as inhibition of conditioned avoidance response measured as maximum number of shocks possible per 30 mins interval at 1 mg/kg, po after 0 to 30 mins dosing; format: functional
Saimiri [3] = assay: Antipsychotic activity in squirrel monkey assessed as inhibition of conditioned avoidance response measured as maximum number of shocks possible per 30 mins interval at 1 mg/kg, po after 30 to 60 mins dosing; format: functional
Saimiri [4] = assay: Antipsychotic activity in squirrel monkey assessed as inhibition of conditioned avoidance response measured as maximum number of shocks possible per 30 mins interval at 1 mg/kg, po after 60 to 90 mins dosing; format: functional
Saimiri [5] = assay: Antipsychotic activity in squirrel monkey assessed as inhibition of conditioned avoidance response measured as maximum number of shocks possible per 30 mins interval at 3 mg/kg, po after 90 to 120 mins dosing; format: functional
Saimiri [6] = assay: Antipsychotic activity in squirrel monkey assessed as inhibition of conditioned avoidance response measured as maximum number of shocks possible per 30 mins interval at 3 mg/kg, po after 120 to 150 mins dosing; format: functional
Saimiri [7] = assay: Antipsychotic activity in squirrel monkey assessed as inhibition of conditioned avoidance response measured as maximum number of shocks possible per 30 mins interval at 3 mg/kg, po after 150 to 180 mins dosing; format: functional
Saimiri [8] = assay: Antipsychotic activity in squirrel monkey assessed as inhibition of conditioned avoidance response at 27 mg/kg, po; format: functional, organism-based; set-up: dose 27 mg/kg
Mus musculus [9] = assay: Central anticholinergic activity against physostigmine-induced lethality in Carworth CF1 mouse assessed as animal death at 10 mg/kg, po treated 5 hrs before 1.6 mg/kg, sc physostigmine treatment and 2 mg/kg, ip atropine methyl nitrate treated 0.5 hrs before induction (reference value: 0%); format: functional
Mus musculus [10] = assay: Peripheral anticholinergic activity in po dosed Carworth CF1 mouse assessed as dose required to produce pupil dilation to 1.5 micrometer units in 50% mouse after 2 hrs; format: ADME, organism-based; conditions: in vivo
Saimiri [11] = assay: Antipsychotic activity in po dosed squirrel monkey assessed as inhibition of conditioned avoidance response measured as maximum number of shocks; format: functional; conditions: Saimiri, in Primates, po; read-out: ED50

CN1CCC(=C2c3ccccc3C=Cc3ccc(SC(F)(F)F)cc32)CC1
inhibition (Saimiri [1]): inactive | %max (Saimiri [2]): 0% | %max (Saimiri [3]): 0.66% | %max (Saimiri [4]): 8% | %max (Saimiri [5]): 77.4% | %max (Saimiri [6]): 100% | %max (Saimiri [7]): 100%

FC(F)(F)Sc1ccc2c(c1)C(=C1CCN(CC3CC3)CC1)c1ccccc1C=C2
inhibition (Saimiri [8]): inactive

CN1CCC(=C2c3ccccc3C=Cc3ccccc32)CC1 [CYPROHEPTADINE]
Activity (Mus musculus [9]): 0% | ED (Mus musculus [10]): 6 mg/kg

CSc1ccc2c(c1)N(CCC1CCCCN1C)c1ccccc1S2.Cl (stereo unspecified) [THIORIDAZINE HYDROCHLORIDE]
ED50 (Saimiri [11]): 0.97 mg/kg
